Measured values published in patent publication US12448369B2 (Edgewise Therapeutics, Inc., priority 2023, dated 2025).
Marks after values point to notes of the source that are not given here.

Tests used:
[1] = biological target: T1, Porcine ventricle myofibrils (ventricular myosin ATPase) (Sus scrofa, UniProt P79293); test: Myofibril ATPase assay, porcine ventricle myofibrils; format: biochemical, porcine (Yucatan minipigs); conditions: porcine ventricle myofibrils
T1 construct: Myofibrils from porcine cardiac muscle was isolated from the left ventricle of Yucatan minipigs; tissue Exemplar Genetics; host or cells: left ventricle of Yucatan minipigs, myofibrils prepared in house
Procedure, shortened: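 Left-ventricle myofibrils from Yucatan minipigs were tested with a PK/LDH-coupled system, following NADH loss at 340 nm every 1.5-2 min for 75 min. Slopes were normalized to vehicle wells and fit to a 4-parameter logistic model; values are Y75 (25% ATPase reduction) or Y125 concentrations.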

[2] = test system: Rabbit Psoas myofibrils (skeletal myosin ATPase); test: Myofibril ATPase assay, rabbit psoas (skeletal) myofibrils; format: biochemical; conditions: rabbit psoas myofibrils
Procedure, shortened: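 Readout: A340 decline from NADH oxidation, PK/LDH-coupled to ADP release; kinetic reads over 75 min. Buffer: pCa (PIPES, CaCl2, EGTA), pH 7.0. Linear-regression slopes vs vehicle, 4PL fit; reported as concentration giving 75% (Y75) or 125% (Y125) of vehicle activity.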

[3] = test system: Porcine atria myofibrils (atrial myosin ATPase); test: Myofibril ATPase assay, porcine atria myofibrils; format: biochemical; conditions: porcine atria myofibrils
Procedure, shortened: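 Coupled PK-LDH readout, NADH loss at 340 nm, kinetic 75 min. Porcine atria myofibrils, pCa buffer (PIPES/CaCl2/EGTA, pH 7.0). Slopes (mAU/min) normalized to vehicle = 100%, 4-parameter fit; Y75 or Y125 reported.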

[4] = Y75 value (75% activity relative to no compound)
[5] = ‡ Y125 value, not a Y75 value (125% activity relative to no compound)

T1 sequence (P79293 whole entry): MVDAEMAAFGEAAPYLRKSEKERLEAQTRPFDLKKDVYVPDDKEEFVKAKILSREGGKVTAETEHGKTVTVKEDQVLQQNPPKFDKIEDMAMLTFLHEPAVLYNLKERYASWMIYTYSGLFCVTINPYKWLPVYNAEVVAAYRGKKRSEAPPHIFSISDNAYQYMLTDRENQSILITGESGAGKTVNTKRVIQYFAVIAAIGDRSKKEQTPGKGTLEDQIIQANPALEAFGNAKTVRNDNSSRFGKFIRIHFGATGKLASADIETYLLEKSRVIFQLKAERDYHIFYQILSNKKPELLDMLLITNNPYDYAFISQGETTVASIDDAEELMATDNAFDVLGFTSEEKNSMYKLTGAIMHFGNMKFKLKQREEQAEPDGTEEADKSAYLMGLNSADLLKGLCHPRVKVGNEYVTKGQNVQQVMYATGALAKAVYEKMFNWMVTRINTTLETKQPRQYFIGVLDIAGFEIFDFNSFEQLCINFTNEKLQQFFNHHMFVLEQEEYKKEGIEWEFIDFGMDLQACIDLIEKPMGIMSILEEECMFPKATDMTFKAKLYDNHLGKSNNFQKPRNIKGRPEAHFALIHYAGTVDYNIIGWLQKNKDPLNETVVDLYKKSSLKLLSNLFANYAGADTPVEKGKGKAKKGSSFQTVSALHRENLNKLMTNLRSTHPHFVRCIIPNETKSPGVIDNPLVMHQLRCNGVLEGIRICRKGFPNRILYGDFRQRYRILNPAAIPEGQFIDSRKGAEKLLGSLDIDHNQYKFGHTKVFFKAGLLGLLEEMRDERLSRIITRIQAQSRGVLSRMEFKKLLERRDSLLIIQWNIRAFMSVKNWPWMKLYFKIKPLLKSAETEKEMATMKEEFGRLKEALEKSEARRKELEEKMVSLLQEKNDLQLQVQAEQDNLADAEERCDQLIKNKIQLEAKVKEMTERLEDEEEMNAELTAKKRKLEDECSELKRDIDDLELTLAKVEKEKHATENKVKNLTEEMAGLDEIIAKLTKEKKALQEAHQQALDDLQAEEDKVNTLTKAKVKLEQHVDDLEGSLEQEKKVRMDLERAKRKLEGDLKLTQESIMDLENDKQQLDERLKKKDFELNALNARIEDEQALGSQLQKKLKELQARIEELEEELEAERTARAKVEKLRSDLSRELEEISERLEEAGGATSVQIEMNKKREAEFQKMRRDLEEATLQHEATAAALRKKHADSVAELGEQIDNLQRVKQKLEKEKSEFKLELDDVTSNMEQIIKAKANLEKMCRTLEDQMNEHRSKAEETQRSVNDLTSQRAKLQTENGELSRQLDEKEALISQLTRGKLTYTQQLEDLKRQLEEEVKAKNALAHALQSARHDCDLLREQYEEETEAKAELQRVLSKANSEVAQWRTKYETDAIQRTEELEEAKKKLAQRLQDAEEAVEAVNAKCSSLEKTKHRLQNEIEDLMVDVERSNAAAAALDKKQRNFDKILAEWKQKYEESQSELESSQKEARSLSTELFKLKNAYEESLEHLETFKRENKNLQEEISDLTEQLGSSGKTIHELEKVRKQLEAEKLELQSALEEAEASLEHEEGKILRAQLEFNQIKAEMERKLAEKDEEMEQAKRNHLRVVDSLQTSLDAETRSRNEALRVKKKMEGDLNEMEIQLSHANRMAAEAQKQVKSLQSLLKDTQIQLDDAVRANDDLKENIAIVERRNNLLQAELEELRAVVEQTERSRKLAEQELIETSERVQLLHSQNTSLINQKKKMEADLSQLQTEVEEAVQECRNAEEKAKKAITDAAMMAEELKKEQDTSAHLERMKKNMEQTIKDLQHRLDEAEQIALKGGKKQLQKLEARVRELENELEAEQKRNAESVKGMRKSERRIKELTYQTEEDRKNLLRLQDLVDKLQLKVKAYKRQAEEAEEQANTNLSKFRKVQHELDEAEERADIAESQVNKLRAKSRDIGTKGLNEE

Cc1c(CC(=O)N[C@@H](CO)c2ncc(C#N)cc2F)c(=O)[nH]c2cnnc(C#N)c12 [compound 164]
Ventricular EC25 ([1]; Y75 value): 22.06 µM | Skeletal EC25 ([2]; Y75 value): 1.12 µM | Atrial EC25 [3, 4]: 2.51 µM

Cc1c(CC(=O)N[C@@H](C)c2ccc(C#N)cc2F)c(=O)[nH]c2ccc(F)c(C#N)c12 [compound 68]
Ventricular EC25 ([1]; Y75 value (no ‡ mark)): 0.07 µM | Skeletal EC25 ([2]; Y75 value (no ‡ mark)): 0.01 µM | Atrial EC25 ([3]; Y75 value (no ‡ mark)): 0.06 µM

Cc1nccc2[nH]c(=O)c(C3(C(=O)N[C@@H](C)c4ccc(C#N)cc4F)CC3)c(C)c12 (single isomer, unassigned) [compound 3512]
Ventricular EC25 (Y125 value, marked ‡) ([1]; Y125 value, not a Y75 value): 100.00‡ μM | Skeletal EC25 ([2]; Y75 value): 0.71 µM | Atrial EC25 [3, 4]: 1.65 µM

Cc1nccc2[nH]c(=O)c(CC(=O)N[C@H](C)c3ccccn3)c(C)c12 (single isomer, unassigned) [compound 324]
Ventricular EC25 ([1]; Y75 value): 100.00 µM | Skeletal EC25 ([2]; Y75 value): 100.00 µM | Atrial EC25 [3, 4]: 100.00 µM

Cc1c(CC(=O)N[C@@H](C)c2ccc(C#N)cc2F)c(=O)[nH]c2ccc(F)c(F)c12 [compound 66]
Ventricular EC25 ([1]; Y75 value (no ‡ mark)): 0.06 µM | Skeletal EC25 ([2]; Y75 value (no ‡ mark)): 0.01 µM | Atrial EC25 ([3]; Y75 value (no ‡ mark)): 0.05 µM

Cc1nccc2[nH]c(=O)c(CC(=O)N[C@@H](CO)Cc3ccccc3)c(C)c12 [compound 496]
Ventricular EC25 ([1]; Y75 value): 100.00 µM | Skeletal EC25 ([2]; Y75 value): 100.00 µM | Atrial EC25 [3, 4]: 100.00 µM

Cc1c(CC(=O)N[C@@H](C)c2ccc(F)cn2)c(=O)[nH]c2cccc(F)c12 [compound 44]
Ventricular EC25 ([1]; Y75 value (no ‡ mark)): 1.97 µM | Skeletal EC25 ([2]; Y75 value (no ‡ mark)): 0.05 µM | Atrial EC25 ([3]; Y75 value (no ‡ mark)): 0.21 µM

C[C@@H](NC(=O)C1(c2cc3c(F)c(F)ccc3[nH]c2=O)CC1)c1nccc(C#N)n1 (single isomer, unassigned) [compound 2505]
Ventricular EC25 ([1]; Y75 value (no ‡ mark)): 100.00 µM | Skeletal EC25 ([2]; Y75 value (no ‡ mark)): 100.00 µM | Atrial EC25 ([3]; Y75 value (no ‡ mark)): 100.00 µM

Cc1c(CC(=O)N[C@H](C)c2ccc(C#N)nn2)c(=O)[nH]c2cc(F)c(F)cc12 [compound 1042]
Ventricular EC25 ([1]; Y75 value (no ‡ mark)): 24 µM | Skeletal EC25 ([2]; Y75 value (no ‡ mark)): 1.88 µM | Atrial EC25 ([3]; Y75 value (no ‡ mark)): 0.89 µM

Cc1c([C@@H](C)C(=O)N[C@H](C)c2ncc(C#N)cc2F)c(=O)[nH]c2ccc(F)c(F)c12 (relative stereo) [compound 2600, Rel-(2R*)-N-[(1R)-1-(5-cyano-3-fluoropyridin-2-yl)ethyl]-2-(5,6-difluoro-4-methyl-2-oxo-1H-quinolin-3-yl) propanamide]
Ventricular EC25 ([1]; Y75 value (no ‡ mark)): 100.00 µM | Skeletal EC25 ([2]; Y75 value (no ‡ mark)): 100.00 µM | Atrial EC25 ([3]; Y75 value (no ‡ mark)): 0.67 µM

Cc1nccc2[nH]c(=O)c(CC(=O)NC[C@H](CO)c3ccccc3)c(C)c12 [compound 493]
Ventricular EC25 ([1]; Y75 value): 100.00 µM | Skeletal EC25 ([2]; Y75 value): 100.00 µM | Atrial EC25 [3, 4]: 100.00 µM

Cc1cc(C#N)nnc1[C@@H](C)NC(=O)Cc1c(C)c2c(F)c(F)ccc2[nH]c1=O [compound 1135]
Ventricular EC25 ([1]; Y75 value (no ‡ mark)): 5.94 µM | Skeletal EC25 ([2]; Y75 value (no ‡ mark)): 2.90 µM | Atrial EC25 ([3]; Y75 value (no ‡ mark)): 0.59 µM

Cc1c(CC(=O)N[C@@H](C)c2ncc(C#N)cc2F)c(=O)[nH]c2ccc(C(F)(F)F)nc12 [compound 147]
Ventricular EC25 ([1]; Y75 value): 0.12 µM | Skeletal EC25 ([2]; Y75 value): 0.06 µM | Atrial EC25 [3, 4]: 0.02 µM

Cc1nccc2[nH]c(=O)c(CC(=O)N[C@H](C)c3ccc(O)cc3)c(C)c12 (single isomer, unassigned) [compound 328]
Ventricular EC25 ([1]; Y75 value): 100.00 µM | Skeletal EC25 ([2]; Y75 value): 100.00 µM | Atrial EC25 [3, 4]: 100.00 µM

Cc1nccc2[nH]c(=O)c(CC(=O)N[C@H](CO)c3ccccn3)c(C)c12 (single isomer, unassigned) [compound 316]
Ventricular EC25 ([1]; Y75 value): 100.00 µM | Skeletal EC25 ([2]; Y75 value): 100.00 µM | Atrial EC25 [3, 4]: 100.00 µM

Cc1c([C@@H](C)C(=O)N[C@@H](C)c2ccc(F)cc2F)c(=O)[nH]c2ccnc(F)c12 (single isomer, unassigned) [compound 376]
Ventricular EC25 ([1]; Y75 value): 1.33 µM | Skeletal EC25 ([2]; Y75 value): 0.03 µM | Atrial EC25 [3, 4]: 0.16 µM

Cc1c(CC(=O)N[C@@H](C)c2ccc(F)cc2F)c(=O)[nH]c2ccnc(N3CCOCC3)c12 [compound 345]
Ventricular EC25 ([1]; Y75 value): 51.73 µM | Skeletal EC25 ([2]; Y75 value): 1.83 µM | Atrial EC25 [3, 4]: 10.74 µM

Cc1nccc2[nH]c(=O)c(CC(=O)N[C@@H](c3ccc(F)cc3F)C(C)(C)O)c(C)c12 (single isomer, unassigned) [compound 271]
Ventricular EC25 ([1]; Y75 value): 100.00 µM | Skeletal EC25 ([2]; Y75 value): 100.00 µM | Atrial EC25 [3, 4]: 100.00 µM

Cc1c(C2(C(=O)N[C@@H](C)c3cc(C#N)ccn3)CC2)c(=O)[nH]c2ccc(F)cc12 (single isomer, unassigned) [compound 2578]
Ventricular EC25 [1, 5]: 100.00‡ μM | Skeletal EC25 [2, 5]: 100.00‡ μM | Atrial EC25 [3, 5]: 100.00‡ μM

Cc1c(CC(=O)N[C@H](C)c2ncc(C#N)cc2F)c(=O)[nH]c2ccc(F)c(C#N)c12 [compound 31]
Ventricular EC25 ([1]; Y75 value (no ‡ mark)): 0.16 µM | Skeletal EC25 ([2]; Y75 value (no ‡ mark)): 0.06 µM | Atrial EC25 ([3]; Y75 value (no ‡ mark)): 0.10 µM

C[C@H](NC(=O)Cc1cc2nc(Cl)ncc2[nH]c1=O)c1ccc(F)cc1F [compound 390]
Ventricular EC25 ([1]; Y75 value): 44.80 µM | Skeletal EC25 ([2]; Y75 value): 7.06 µM | Atrial EC25 [3, 4]: 100.00 µM

C[C@H](NC(=O)C(F)(F)c1cc2c(F)c(F)ccc2[nH]c1=O)c1cc(C#N)ccn1 (single isomer, unassigned) [compound 2558]
Ventricular EC25 ([1]; Y75 value (no ‡ mark)): 81.97 µM | Skeletal EC25 ([2]; Y75 value (no ‡ mark)): 100.00 µM | Atrial EC25 ([3]; Y75 value (no ‡ mark)): 31.66 µM

Cc1c(CC(=O)N[C@H](C)c2ccc(C#N)cn2)c(=O)[nH]c2cccc(C#N)c12 [compound 1076]
Ventricular EC25 ([1]; Y75 value (no ‡ mark)): 1.49 µM | Skeletal EC25 ([2]; Y75 value (no ‡ mark)): 0.35 µM | Atrial EC25 ([3]; Y75 value (no ‡ mark)): 1.89 µM

C[C@H](NC(=O)Cc1c(C2CC2)c2cnccc2[nH]c1=O)c1ccc(C#N)cn1 [compound 141]
Ventricular EC25 ([1]; Y75 value): 100.00 µM | Skeletal EC25 ([2]; Y75 value): 8.74 µM | Atrial EC25 [3, 4]: 100.00 µM

Cc1c(CC(=O)N[C@@H](C)c2ncc(C#N)cn2)c(=O)[nH]c2ccc(F)cc12 [compound 1071]
Ventricular EC25 ([1]; Y75 value (no ‡ mark)): 11.94 µM | Skeletal EC25 ([2]; Y75 value (no ‡ mark)): 100.00 µM | Atrial EC25 ([3]; Y75 value (no ‡ mark)): 5.29 µM

COc1nccc2[nH]c(=O)c(CC(=O)N[C@@H](C)c3ncc(C#N)cc3F)c(C(F)(F)F)c12 (single isomer, unassigned) [compound 3010]
Ventricular EC25 ([1]; Y75 value): 3.57 µM | Skeletal EC25 ([2]; Y75 value): 0.63 µM | Atrial EC25 [3, 4]: 0.70 µM

Cc1c(CC(=O)N[C@H](CO)c2ccc(F)cc2F)c(=O)[nH]c2ccnc(C(F)(F)F)c12 [compound 231]
Ventricular EC25 ([1]; Y75 value): 100.00 µM | Skeletal EC25 ([2]; Y75 value): 100.00 µM | Atrial EC25 [3, 4]: 100.00 µM

Cc1nc(C#N)ncc1[C@@H](C)NC(=O)Cc1c(C)c2c(C)nccc2[nH]c1=O [compound 464]
Ventricular EC25 ([1]; Y75 value): 0.18 µM | Skeletal EC25 ([2]; Y75 value): 0.03 µM | Atrial EC25 [3, 4]: 0.37 µM

Cc1c(CC(=O)N[C@H](CO)c2ccc(C#N)cc2F)c(=O)[nH]c2ccc(F)c(C3CC3)c12 [compound 71]
Ventricular EC25 ([1]; Y75 value (no ‡ mark)): 8.50 µM | Skeletal EC25 ([2]; Y75 value (no ‡ mark)): 0.23 µM | Atrial EC25 ([3]; Y75 value (no ‡ mark)): 1.10 µM

Cc1c(C(F)(F)C(=O)N[C@@H](C)c2ncc(C#N)cn2)c(=O)[nH]c2ccc(F)cc12 (single isomer, unassigned) [compound 2595]
Ventricular EC25 ([1]; Y75 value (no ‡ mark)): 0.45 µM | Skeletal EC25 ([2]; Y75 value (no ‡ mark)): 0.17 µM | Atrial EC25 ([3]; Y75 value (no ‡ mark)): 0.36 µM

Cc1nc(C#N)ncc1[C@H](C)NC(=O)Cc1c(C)c2c(C)nccc2[nH]c1=O [compound 465]
Ventricular EC25 ([1]; Y75 value): 100.00 µM | Skeletal EC25 ([2]; Y75 value): 47.72 µM | Atrial EC25 [3, 4]: 100.00 µM

Cc1c(C(F)(F)C(=O)N[C@@H](C)c2ncc(F)cc2F)c(=O)[nH]c2ccc(F)cc12 (single isomer, unassigned) [compound 4820]
Ventricular EC25 ([1]; Y75 value (no ‡ mark)): 0.61 µM | Skeletal EC25 ([2]; Y75 value (no ‡ mark)): 0.11 µM | Atrial EC25 ([3]; Y75 value (no ‡ mark)): 0.12 µM
